# Data taken from US20040127567A1, “Novel methods for treating disorders in which docosahexaenoic acid (DHA) levels are affected” (Beth Israel Deaconess Medical Center, Inc., priority 1998, published 2004).
# “And” between values parts separate entries of the source, which are not always exact repeats. Equal values may be shown once. “Also recorded” adds a separate entry of the source.
# Experiments:
# Assay type in all cases: in vivo, mouse
# wild-type mice [1] = assay: DHA and AA levels in plasma, red blood cells and pancreas following DHA therapy; conditions: 40 mg DHA/day
# Procedure: In this Example, levels of DHA and AA in various blood components following administration of 40 mg DHA/day to mice was determined. In particular, 40 mg DHA was given to wild type mice and levels of DHA (Table 11) and AA (Table 12) were measured in plasma, red blood cells (RBC), and the pancreas. […] Accordingly, either plasma or red blood cell levels of DHA and AA (and their ratios) can be used as a diagnostic or to determine the effectiveness of treatment in the pancreas and other affected organs.
# CFTR−/− mice = assay: Fatty acid levels (GC/MS) in pancreas and lung cells of CFTR−/− mice fed n-3 fatty acids; conditions: for DHA level in pancreas: CFTR-/- mice, mean ± S.D.; for DHA level in pancreas / Change in phospholipid/membrane-bound AA (in words) / Change in phospholipid/membrane-bound DHA (in words): 40 mg/day for one week (fish oil: dose equivalent to 40 mg DHA, 60 mg EPA, 15 mg LNA); for Change in phospholipid/membrane-bound AA (in words) / Change in phospholipid/membrane-bound DHA (in words): vs Peptamen alone
# Procedure: Mouse pancreatic acinar and lung cell suspensions were prepared from wild type (n=3) and CFTR−/− mice (n=3) by enzymatic and mechanical dissociation. In addition, brain, kidney, heart, spleen, and blood were sonicated in 0.3M sucrose buffer. Membrane lipids were extracted from cell and organ preparations with 20 volumes of chloroform-methanol 2:1 (v/v), transmethylated with 0.5 mL of 0.1 N methanolic-NaOH/BF3 reagent, and the resulting fatty acid methyl esters analyzed by gas chromatography/mass spectrometry (GC/MS). In a different set of experiments, lipids were fractionated by aminopropyl column chromatography into triglycerides, cholesterol esters, and phosphoglycerides and the fatty acid composition of each lipid class determined by a combination of enzymatic hydrolysis, transmethylation, and GC/MS.
# Cystic fibrosis (UNC strain) and wild type mice (12-20 grams body weight) were fed with a complete liquid enteral formulation (Peptamen™, Nestle Clinical Nutrition, Inc.) supplemented with different quantities of the DHA-containing formulation Neuromins (Nature's Way Products Inc., Springville, Utah). DHA content in the Neuromins formulation was 100 mg per 500 mg of formulation. Mice were fed once a day at about 11 a.m., seven days a week with 20 ml of Peptamen™ supplemented with the various amounts of either Neuramins, free DHA (Sigma Chemical Co., MO) or DHA-ethyl ester (Nu-Check-Prep, Inc. MN) ranging from 0.5 mg/day of DHA to 40 mg/day of DHA.
# Lung and acinar cells were isolated from a CF mouse fed with DHA formula (mouse-1, 40 mg/day DHA). The pellets (0.5 mL for pancreas cell homogenate and 0.6 mL for lung cell homogenate) were extracted with 3 mL of chloroform-methanol 2:1 (v/v). The resulting emulsion was vortexed, centrifuged at 800 g for 3 min., and the lower phase aspirated. The residual upper phase was partitioned again with 3 mL of chloroform-methanol 2:1 (v/v), the lower phase aspirated and both lower phases combined. Fractions were evaporated to dryness, processed for fatty acid methyl esters (FAME) and were analyzed by GC-MS analysis. Aliquots of 10 μL of 17:0 methyl ester solution in hexane [1 μg/μL] were added to the samples after methylation.
# (§1) Lung and acinar cells were isolated from a CF and a wild-type (WT) mouse fed with DHA formula. The pellets (0.5 mL for pancreas cell homogenate and 0.6 mL for lung cell homogenate) were extracted with 3 mL of chloroform-methanol 2:1 (v/v). The resulting emulsion was vortexed, centrifuged at 800 g for 3 min., and the lower phase aspirated. The residual upper phase was partitioned again with 3 mL of chloroform-methanol 2:1 (v/v), the lower phase aspirated and both lower phases combined. Fractions were evaporated to dryness, processed for FAME and analyzed by GC-MS. Aliquots of 20 μL of 17:0 in chloroform-methanol 2:1 (v/v) were added to the samples before methylation.
# as §1, with “from” for “from a”, “mice” for “and a wild-type (WT) mouse”, “different doses of DHA, i.e., 0.5 mg/day, 2.0 mg/day, 10 mg/day or 40 mg/day DHA.” for “DHA formula.”, “pellets” for “pellets (0.5 mL for pancreas cell homogenate and 0.6 mL for lung cell homogenate)”, “30” for “20”
# CFTR−/− mice were prepared as described in Example 1. Both CFTR−/− mice and wild type mice were euthanized with carbon dioxide, and cell suspensions from pancreas and lung isolated.
# wild-type mice [2] = assay: Pancreas and ileum morphology in wild-type mice; conditions: 40 mg/day for one week
# Procedure: The morphology of various organs were also studied. Sample preparation were carried out as follows: 1-2 cm of ileum adjacent to the cecum was fixed in formalin, embedded in paraffin, cut in cross-section, and stained with hematoxylin/eosin. For pancreatic analyses, 2-3 mm pieces of pancreas were fixed for 1.5 h in 2% glutaraldehyde in 0.2M cacodylate buffer. Tissue samples were then washed in 0.2M cacodylate buffer and subsequently postfixed for 1 h in 1% osmium tetroxide in 0.1 M cacodylate buffer. Tissue was embedded in epon and thick sections stained with 1% toluidine blue.
# Morphometry: For measurement of ileal villus height or pancreatic luminal diameter, multiple images were randomly taken at 200× using a Nikon Microphot-SA microscope equipped with a Diagnostic Instruments, Inc., Spot Digitizing System. Images were examined in a blinded fashion by two independent observers. Quantitation was performed using NIH Imaging Software. The differences between the means in the groups tested were evaluated using the Student's t-test.
# [3] = CF mice, 40 mg/day DHA (dose series, Table 5)
# [4] = CF mouse-1, 40 mg/day DHA, day 30 to day 37
# [5] = CF mouse-2, 40 mg/day DHA, day 24 to day 47
# [6] = CFTR (-/-) mice, 40 mg DPA per day for 7 days
# [7] = CFTR−/− mice, listed as 18:3n-3
smiles,measurement,setting,value
"CC/C=C\C/C=C\C/C=C\C/C=C\C/C=C\C/C=C\CCC(=O)O [DHA, docosahexaenoic acid]",Phospholipid-bound AA level in RBC,wild-type mice [1]; day 2,10.1 nmoles/100 million cells
same,Phospholipid-bound AA level in pancreas,wild-type mice [1]; day 2,262 nmoles per total extract
same,Phospholipid-bound AA level in plasma,wild-type mice [1]; day 2,227 µg/mL
same,Phospholipid-bound DHA level in pancreas,wild-type mice [1]; day 2,67.8 nmoles per total extract
same,Phospholipid-bound AA level in RBC,wild-type mice [1]; day 4,6.2 nmoles/100 million cells
same,Phospholipid-bound AA level in pancreas,wild-type mice [1]; day 4,139 nmoles per total extract
same,Phospholipid-bound AA level in plasma,wild-type mice [1]; day 4,123 µg/mL
same,Phospholipid-bound DHA level in pancreas,wild-type mice [1]; day 4,101.0 nmoles per total extract
same,Phospholipid-bound AA level in RBC,wild-type mice [1]; day 7,3.7 nmoles/100 million cells
same,Phospholipid-bound AA level in pancreas,wild-type mice [1]; day 7,104 nmoles per total extract
same,Phospholipid-bound AA level in plasma,wild-type mice [1]; day 7,84 µg/mL
same,Phospholipid-bound DHA level in pancreas,wild-type mice [1]; day 7,125 nmoles per total extract
same,20:4n-6 in pancreas,"CFTR−/− mice; CF mice, 0.5 mg/day DHA",315 nmoles per total extract
same,22:4n-6 in pancreas,"CFTR−/− mice; CF mice, 0.5 mg/day DHA",8.3 nmoles per total extract
same,22:6n-3 in pancreas,"CFTR−/− mice; CF mice, 0.5 mg/day DHA",39 nmoles per total extract
same,20:4n-6 in pancreas,"CFTR−/− mice; CF mice, 2 mg/day DHA",233 nmoles per total extract
same,22:4n-6 in pancreas,"CFTR−/− mice; CF mice, 2 mg/day DHA",7.2 nmoles per total extract
same,22:6n-3 in pancreas,"CFTR−/− mice; CF mice, 2 mg/day DHA",43 nmoles per total extract
same,20:4n-6 in pancreas,"CFTR−/− mice; CF mice, 10 mg/day DHA",177 nmoles per total extract
same,22:4n-6 in pancreas,"CFTR−/− mice; CF mice, 10 mg/day DHA",3.7 nmoles per total extract
same,22:6n-3 in pancreas,"CFTR−/− mice; CF mice, 10 mg/day DHA",67 nmoles per total extract
same,20:4n-6 in pancreas,CFTR−/− mice; [3],67 nmoles per total extract
same,22:4n-6 in pancreas,CFTR−/− mice; [3],0.4 nmoles per total extract
same,22:6n-3 in pancreas,CFTR−/− mice; [3],148 nmoles per total extract
same,20:4n-6 in lung,CFTR−/− mice; [4],75 nmoles per total extract
same,20:4n-6 in pancreas,CFTR−/− mice; [4],144^1 nmoles per total extract
same,22:4n-6 in lung,CFTR−/− mice; [4],12 nmoles per total extract
same,22:4n-6 in pancreas,CFTR−/− mice; [4],1.5 nmoles per total extract
same,22:6n-3 in lung,CFTR−/− mice; [4],167 nmoles per total extract
same,22:6n-3 in pancreas,CFTR−/− mice; [4],167 nmoles per total extract
same,20:4n-6 in lung,CFTR−/− mice; [5],60 nmoles per total extract
same,20:4n-6 in pancreas,CFTR−/− mice; [5],67^1 nmoles per total extract and 67 nmoles per total extract
same,22:4n-6 in lung,CFTR−/− mice; [5],4.1 nmoles per total extract
same,22:4n-6 in pancreas,CFTR−/− mice; [5],0.4 nmoles per total extract
same,22:6n-3 in lung,CFTR−/− mice; [5],222 nmoles per total extract
same,22:6n-3 in pancreas,CFTR−/− mice; [5],148 nmoles per total extract
same,DHA level in pancreas,CFTR−/− mice,7.9 ± 1.5 nmol/mg
same,Increase of DHA levels in pancreas above wild-type levels,"CFTR−/− mice; CFTR−/− mice, 40 mg DHA/day",3 fold
"CC/C=C\C/C=C\C/C=C\C/C=C\C/C=C\CCCCCC(=O)O [DPA, docosapentaenoic acid]",20:4n-6 in lung,CFTR−/− mice; [6],5.8 ± 0.9 (17.5) nmoles of fatty acid per mg of protein
same,20:4n-6 in pancreas,CFTR−/− mice; [6],5.1 ± 0.6^1 (13.3) nmoles of fatty acid per mg of protein
same,20:5n-3 in lung,CFTR−/− mice; [6],15.6 ± 1.1 (0.1) nmoles of fatty acid per mg of protein
same,22:6n-3 in lung,CFTR−/− mice; [6],5.5 ± 0.8(4.0) nmoles of fatty acid per mg of protein
same,DHA level in pancreas,CFTR−/− mice,3.7 ± 0.4 nmol/mg
"CC/C=C\C/C=C\C/C=C\CCCCCCCC(=O)O [LNA, α-linolenic acid, reference compound]",DHA level in pancreas,CFTR−/− mice,0.7 ± 0.07 nmol/mg
same,Change in phospholipid/membrane-bound AA (in words),CFTR−/− mice; CFTR−/− mice,significant decrease; also recorded: four-fold decrease
same,Change in phospholipid/membrane-bound DHA (in words),CFTR−/− mice; CFTR−/− mice,further decrease; also recorded: two-fold decrease
same,Change in phospholipid/membrane-bound AA (in words),CFTR−/− mice; [7],significant decrease
same,Change in phospholipid/membrane-bound DHA (in words),CFTR−/− mice; [7],further decrease
same,Effect on pancreas morphology (in words),wild-type mice [2],did not produce and observable effects on pancreas morphology
same,Effect on pancreas morphology (in words),wild-type mice [2]; listed as 18:3n-3,did not produce any observable effects on pancreas morphology
